Results as given in PubChem BioAssay (NCI).
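GI50 = concentration required for 50% inhibition of growth. At the TGI there is no net growth.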

How the values were obtained:
Assay in all cases: NCI tumour cell line growth inhibition, 384-well format; in the data active means GI50 below about 0.43 µM; inactive means the rest
[1] = test system: 786-0 renal
[2] = test system: A498 renal
[3] = test system: A549 NSCLC
[4] = test system: ACHN renal
[5] = test system: BT-549 breast
[6] = test system: CAKI-1 renal
[7] = test system: CCRF-CEM leukemia
[8] = test system: COLO 205 colon
[9] = test system: DU-145 prostate
[10] = test system: EKVX NSCLC
[11] = test system: HCC-2998 colon
[12] = test system: HCT-15 colon
[13] = test system: HL-60(TB) leukemia
[14] = test system: HOP-62 NSCLC
[15] = test system: HOP-92 NSCLC
[16] = test system: HS 578T breast
[17] = test system: HT29 colon
[18] = test system: IGROV1 ovarian
[19] = test system: KM12 colon
[20] = test system: M14 melanoma
[21] = test system: MCF7 breast
[22] = test system: MDA-MB-231 breast
[23] = test system: MDA-MB-435 melanoma
[24] = test system: MDA-MB-468 breast
[25] = test system: MOLT-4 leukemia
[26] = test system: NCI-H226 lung
[27] = test system: NCI-H23 lung
[28] = test system: NCI-H322M lung

O=C1c2ccccc2-c2n[nH]c3cccc1c23
3.76 µM: TGI [25]
49.7 µM: TGI [5]
26 µM: TGI [8]
43.5 µM: TGI [11]
84.6 µM: TGI [2]
> 100 µM: TGI [1] | TGI [3] | TGI [9] | TGI [10] | TGI [12] | TGI [13] | TGI [15] | TGI [17] | TGI [19] | TGI [21] | TGI [22] | TGI [23] | TGI [27]
11.7 µM: TGI [26]
12.5 µM: TGI [24]
71.2 µM: TGI [16]
25.2 µM: TGI [7]
46.8 µM: TGI [4]
58.9 µM: TGI [20]
64.6 µM: TGI [18]
14.9 µM: TGI [6]
inactive: GI50 [1] 19.2 µM | GI50 [2] 3 µM | GI50 [3] 15.8 µM | GI50 [4] 11 µM | GI50 [5] 3.72 µM | GI50 [6] 3.39 µM | GI50 [7] 6 µM | GI50 [8] 10.3 µM | GI50 [9] 14.7 µM | GI50 [10] 4.49 µM | GI50 [11] 3.74 µM | GI50 [12] 4.63 µM | GI50 [13] 10.4 µM | GI50 [14] 14.8 µM | GI50 [15] 20 µM | GI50 [16] 5.63 µM | GI50 [17] 11.4 µM | GI50 [18] 4.82 µM | GI50 [19] 2.78 µM | GI50 [20] 5.93 µM | GI50 [21] 37.4 µM | GI50 [22] 13.9 µM | GI50 [23] 17.4 µM | GI50 [24] 2.72 µM | GI50 [25] 1.74 µM | GI50 [26] 2.26 µM | GI50 [27] 19.8 µM | GI50 [28] 32.4 µM
69.1 µM: TGI [14]
